Consider 4 compounds from patent publication US20230112958A1, “Smart Drug Delivery System and Pharmaceutical Kit for Dual Nuclear Medical Cytotoxic Theranostics” (SCV-SpezialChemikalienVertrieb GmbH, priority 2019, published 2023).

Data set [1] has as its system LNCaP tumor. Also noted: species or system Balb/c mice. The conditions noted are these: mouse, in vivo. On the procedure: DATA.QS.KuE was labeled with ^68Ga and tested in vivo on LNCaP tumor-carrying Balb/c mice. […] The selectivity of binding was determined by means of competitive co-injection of the PSMA inhibitor PMPA. […] FIGS. 10a and 10b show the maximum-intensity projections from μPET studies with [^68Ga]-PSMA-11 and, respectively, [^68Ga]-DATA.QS.KuE in LNCaP tumor-carrying Balb/c. FIGS. 11a and 11b Showtime-activity curves of [^68Ga]-PSMA-11 and, respectively, [^68Ga]-DATA.QS.KuE. […] In the case of treatment with highly ionizing radionuclides, for example ^177Lu, rather than ^68Ga, DATA.QS.KuE enables a crucial reduction in nephrotoxicity.

Data set [2] deals with LNCaP cells. Put plainly: CellTiter Blue cytotoxicity assay. It counts as cell-based. The conditions noted are these: for IC50: 72 hours incubation, read-out: IC50 (cytotoxic action in vitro). How it is done: In a CellTiter Blue assay, LNCaP cells were incubated with the substance to be studied for 72 hours, and then the IC50 of the compound was determined.
Background: Resazurin is reduced to fluorescent resorufin, in cell work by metabolically active cells.

For data set [3], the target named is T1, PSMA (Homo sapiens, UniProt Q04609).
T1 construct: incubated in the wells with the LNCaP cells for 45 min; endogenous in cells; host or cells: LNCaP cells
T1 sequence (Q04609 whole entry): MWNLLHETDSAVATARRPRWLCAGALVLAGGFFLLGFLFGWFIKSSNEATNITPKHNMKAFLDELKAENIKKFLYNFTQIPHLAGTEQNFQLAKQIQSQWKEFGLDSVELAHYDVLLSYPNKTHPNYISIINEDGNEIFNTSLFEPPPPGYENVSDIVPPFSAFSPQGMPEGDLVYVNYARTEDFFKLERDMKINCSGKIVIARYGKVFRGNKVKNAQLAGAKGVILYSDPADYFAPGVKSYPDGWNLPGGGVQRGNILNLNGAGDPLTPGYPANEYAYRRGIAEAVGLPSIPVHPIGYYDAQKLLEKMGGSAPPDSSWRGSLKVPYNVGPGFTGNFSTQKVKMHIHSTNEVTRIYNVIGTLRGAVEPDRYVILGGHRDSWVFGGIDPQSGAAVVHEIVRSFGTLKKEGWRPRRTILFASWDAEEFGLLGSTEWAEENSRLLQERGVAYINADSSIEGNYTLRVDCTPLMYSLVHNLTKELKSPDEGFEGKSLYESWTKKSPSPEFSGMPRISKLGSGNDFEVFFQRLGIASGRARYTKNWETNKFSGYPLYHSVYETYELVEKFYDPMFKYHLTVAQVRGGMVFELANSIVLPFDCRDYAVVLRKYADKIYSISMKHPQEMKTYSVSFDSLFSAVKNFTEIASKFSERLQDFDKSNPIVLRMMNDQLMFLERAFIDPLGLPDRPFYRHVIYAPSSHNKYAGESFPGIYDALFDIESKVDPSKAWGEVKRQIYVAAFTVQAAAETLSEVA
Put plainly: Cell-based competitive PSMA binding assay on LNCaP cells against reference 68Ga[Ga]PSMA-10. How it is done: By means of a cell-based assay, the affinity of the target vector-linker units QS.KuE, QS.K.EuE and KuE with a lipophilic linker—analogously to PSMA-617—and the affinity of the substructures NH2.DOTAGA.617.KuE and NH2-DOTAGA.QS.KuE was determined. In addition, the PSMA affinity of the structure MMAE.ValCit.QS.617.KuE which is preferred in accordance with the invention (see scheme 30) was determined.
For the essay, LNCaP cells were pipetted into multiwell plates (Merck Millipore Multiscreen™). The compounds to be analyzed were each admixed with a defined amount or concentration of the reference compound ^68Ga[Ga]PSMA-10 with a known Kd value and incubated in the wells with the LNCaP cells for 45 min. After repeated washing, the cell-bound activity was determined.
In order to determine non-specific binding, all compounds were additionally admixed with an excess of the PSMA inhibitor 2-PMPA (2-(phosphonomethyl)-[…]) and subjected to the same LNCaP assay—as described above.

Structures are written as SMILES. Like-named read-outs stand apart in the source and are kept apart here. Non-standard residues stand in square brackets, D forms with d. Residues, ends and D or L forms follow the SMILES beside them. *: point of attachment. Dolaproine = CO[C@@H]([C@@H]1CCCN1)[C@@H](C)C(=O)O; Dil = CC[C@H](C)[C@H](NC)[C@@H](CC(=O)O)OC; X1 = C[C@@H](N*)[C@@H](O)c1ccccc1; NMeV = CN[C@H](C(=O)O)C(C)C

As to `CN(CC(=O)O)C1(CCCCC(=O)NCCNc2c(NCCCC[C@H](NC(=O)N[C@@H](CCC(=O)O)C(=O)O)C(=O)O)c(=O)c2=O)CN(CC(=O)O)CCN(CC(=O)O)C1` [DATA.QS.KuE], in data set [1], the “kidney exposure/dose by comparison with PSMA-11” value is given as “considerably lower” and the “tumor enrichment by comparison with PSMA-11” value is on record as “approximately the same”.

As usually defined, the IC50 is the midpoint of a concentration-inhibition curve. In the case of `CC[C@H](C)[C@@H]([C@@H](CC(=O)N1CCC[C@H]1[C@H](OC)[C@@H](C)C(=O)N[C@H](C)[C@@H](O)c1ccccc1)OC)N(C)C(=O)[C@@H](NC(=O)[C@@H](NC)C(C)C)C(C)C` [MMAE, Monomethyl-auristatin E, reference compound] (H-[NMeV]V[Dil][Dolaproine]-X1), the IC50 in data set [2] (Homo sapiens) is 0.29 ± 0.12 nM.

The Ki is the equilibrium dissociation constant of an inhibitor or competing ligand from its target. In data set [3], `CCC(C)C(C(CC(=O)N1CCCC1C(OC)C(C)C(=O)NC(C)C(O)c1ccccc1)OC)N(C)C(=O)C(NC(=O)C(C(C)C)N(C)C(=O)OCc1ccc(NC(=O)C(CCCNC(N)=O)NC(=O)C(Nc2c(NCC3CCC(C(=O)NC(Cc4ccc5ccccc5c4)C(=O)NCCCCC(NC(=O)NC(CCC(=O)O)C(=O)O)C(=O)O)CC3)c(=O)c2=O)C(C)C)cc1)C(C)C` (stereo not drawn) [MMAE.ValCit.QS.617.KuE] yielded an IC50 of 198.1 ± 1.9 nM and a Ki of 162 ± 3.3 nM. Also, the “cell cytotoxicity in vitro compared with pure active ingredient MMAE” value in data set [2] (72 hours) was “somewhat lower”. In data set [2], the half-inhibitory concentration (IC50) amounted to 32.2 ± 5.7 nM.

Regarding `O=C(O)CCC(NC(=O)NC(CCCCNC(=O)C(Cc1ccc2ccccc2c1)NC(=O)C1CCC(CNC(=O)CN2CCN(CC(=O)O)CCN(CC(=O)O)CCN(CC(=O)O)CC2)CC1)C(=O)O)C(=O)O` (stereo not drawn) [PSMA-617, reference compound], the Ki in data set [3] (LNCaP cells, competition with 68Ga[Ga]PSMA-10, 45 min incubation, calculated from inhibition curves, read-out: Ki (PSMA binding affinities)) is 12.3 ± 3.1 nM. Also, the IC50 in data set [3] (LNCaP cells, competition with 68Ga[Ga]PSMA-10, 45 min incubation, read-out: IC50 (PSMA binding affinities)) came to 15.1 ± 3.8 nM.
